Source: patent US10189826B2, “Heterocyclic compounds and methods of use” (Medivation Technologies LLC, priority 2015, dated 2019)
Like-named read-outs stand apart in the source and are kept apart here.

What was measured:
[1] = Cytotoxicity assay (LDH release) in HepG2_LSSprom cells; assay type: cell-based; conditions: human, 24 h treatment, LDH release
Experimental: (§1) HepG2_LSSprom cells (SwitchGear Genomics, cat# C711010L) were cultured in DMEM with 10% of fetal bovine serum (FBS), supplemented with Puromycin (1 μg/mL), 1% Penicillin/Streptomycin (Pen-Strep), 37° C., humidified, 95% air and 5% CO2. Culture media was refreshed every 2 or 3 days. Cells were used between passage number 6-12.
For cytotoxicity assays, cells were plated out at 20,000 cells/well in transparent 96 well plates in DMEM plus 10% FBS and 1% Pen-Strep without puromycin. After 1 day, cells were treated with Compound by diluting in culture medium without FBS to a final concentration of 0.625, 1.25, 2.5, 3.75, 5 and 10 μM. Compound was prepared by dilutions of 10 mM stock aliquots. As a negative control culture medium was used without FBS plus DMSO. As maximum LDH release control (Lysis control) a lysis buffer provided by the kit manufacturer was used. Treatments with Compound were maintained for 6 h, or 24 h, in cell culture medium without serum until the cytotoxicity assay was started.
The cytotoxicity assay was performed according to the manufacturer's instructions. As maximum LDH release control (Lysis control) 3 wells per plate were treated with 10 μL of lysis buffer 45 min before the treatment was over. Briefly, after the 6 h, or 24 h, of treatment, 50 μL of media from each well was transferred to a new 96-well plate. To the transferred media, 50 μL of reconstituted substrate mix was added. The plates were covered from light and incubated at RT for 10 min. Then, 50 μL of stop solution was added to each well. The plates were then read using a Synergy 4 (Biotek) equipment recording the absorbance at 490 nm.
(§2) Five independent experiments were carried out for both luciferase and cytotoxicity assay. In each experiment, three wells were use per condition and the results are represented as means±SEM.
For cytotoxicity assay, Lysis control was taken as 100%/o of LDH release. The vehicle values were taken as basal LDH release and were subtracted to all the treatments (including vehicle itself) having this value as 0% of LDH release. The LDH release for the treatments was calculated respect to the 100% of LDH release of Lysis control normalized against vehicle. All the negatives values were taken as 0% of cytotoxicity. The graphics were made using the Graph Prism ver. 6.05 software.

[2] = system: SREBP-2 transcriptional activity (SREBP2 cleavage) in HepG2_LSSprom cells; assay: Luciferase reporter driven by a SREBP-2 specific promoter in HepG2_LSSprom cells; assay type: cell-based; conditions: read-out: SREBP2 Cleavage (IC50 μM) 24 h
Experimental: Dose response effects were measured of Compounds on the transcriptional activity of a Luciferase reporter driven by a SREBP-2 specific promoter in HepG2_LSSprom cells.
as §1
For luminescence assays, cells were plated out at 20,000 cells/well in white 96 well plates in DMEM plus 10% FBS and 1% Pen-Strep without puromycin. After 1 day, cells were treated with Compound by diluting the drug in culture medium without FBS to a final concentration of 0.625, 1.25, 2.5, 3.75, 5 and 10 μM. Drug was prepared by dilutions of 10 mM stock aliquots. As control was used culture medium without FBS plus DMSO. Treatments with Compound were maintained for 6 h, or 24 h, until the luciferase assay was carried out.
After 6 h of treatments with Compound, the luciferase assay was performed. Briefly, the assay solution (buffer+substrate) was prepare just prior to use. To each well 100 μL of assay solution was added. The 96-well plate was then gently mix for 2 min and incubated for 30 min at RT protected from light. The luminescence was read using a Synergy 4 (Biotek) equipment recording luminescence with sensibility set up at 150.
as §2
For luciferase assay, Vehicle (no treatment) was taken as 100% of luciferase activity. This value represents the SREBP-2 transcriptional activity for the vehicle condition and was taken as 100% of SREBP-2 cleaved. The percentage for each treatment was calculated normalizing against the vehicle control. The graphics were made using the GraphPad Prism ver. 6.05 software. Half of maximal inhibitory concentration (IC50) of the effect of Compound on SREBP was obtain by nonlinear fit regression of mean normalized values vs. Compound concentration using the log(inhibitor) vs. response−Variable slope (four parameters) tool.

[3] = 24 h, 24 h treatment, HepG2_LSSprom cells

**Q.** Which results are given for `CC(C)(C)c1cc(-c2cc(-c3ccc(C(=O)N4CCOCC4)cc3Cl)cs2)ccn1` [Compound 22, 4-{4-[5-(2-tert-butylpyridin-4-yl)thiophen-3-yl]-3-chlorobenzoyl}morpholine]?
**A.** IC50 at 24 h ([1]; HepG2 LSSprom cells): > 3 µM; IC50 [2, 3]: 0.82 µM

**Q.** With `CC(C)(C)c1cc(-c2cc(-c3ccc(C(=O)Nc4ccccc4)cc3Cl)cs2)ccn1` [Compound 23, 4-[5-(2-tert-butylpyridin-4-yl)thiophen-3-yl]-3-chloro-N-phenylbenzamide] as the compound, how does the IC50 at 24 h ([1]; HepG2 LSSprom cells) read?
**A.** > 10 µM

**Q.** And the IC50 ([2]; 24 h)?
**A.** 0.48 µM

**Q.** With `CC(C)(C)c1cc(-c2nc(-c3ccc(C(=O)N4CCC(F)(F)CC4)cc3Cl)c[nH]2)ccn1` [Compound 24, 2-tert-butyl-4-{4-[2-chloro-4-(4,4-difluoropiperidine-1-carbonyl)phenyl]-1H-imidazol-2-yl}pyridine] as the compound, how does the IC50 at 24 h ([1]; HepG2 LSSprom cells) read?
**A.** > 10 µM

**Q.** And the IC50 [2, 3]?
**A.** > 3 µM

**Q.** What about the IC50 ([2]; 24 h treatment, HepG2_LSSprom cells) of the same compound?
**A.** 2.7 µM

**Q.** What does the source list for `CC(C)(C)c1cc(-c2nc(-c3ccc(C(=O)N4CCCCC4)cc3Cl)c[nH]2)ccn1` [Compound 25, 2-tert-butyl-4-{4-[2-chloro-4-(piperidine-1-carbonyl)phenyl]-1H-imidazol-2-yl}pyridine]?
**A.** IC50 at 24 h ([1]; HepG2 LSSprom cells): > 10 µM; IC50 [2, 3]: 0.62 µM

**Q.** Which results are given for `CN1CCc2cc(-c3csc(-c4ccnc(C(C)(C)C)c4)c3)ccc2C1=O` [Compound 26, 6-[5-(2-tert-butylpyridin-4-yl)thiophen-3-yl]-2-methyl-1,2,3,4-tetrahydroisoquinolin-1-one]?
**A.** IC50 at 24 h ([1]; HepG2 LSSprom cells): > 10 µM; IC50 [2, 3]: > 3 µM

**Q.** With `CC(C)(C)OC(=O)N1CCN(C(=O)c2ccc(-c3csc(-c4ccnc(C(C)(C)C)c4)c3)c(Cl)c2)CC1` [Compound 27, tert-butyl 4-{4-[5-(2-tert-butylpyridin-4-yl)thiophen-3-yl]-3-chlorobenzoyl}piperazine-1-carboxylate] as the compound, how does the IC50 at 24 h ([1]; HepG2 LSSprom cells) read?
**A.** > 10 µM

**Q.** And the IC50 [2, 3]?
**A.** 0.68 µM

**Q.** For `CC(C)(C)c1cc(-c2cc(-c3ccc(C(=O)N4CCNCC4)cc3Cl)cs2)ccn1` [Compound 28, 1-{4-[5-(2-tert-butylpyridin-4-yl)thiophen-3-yl]-3-chlorobenzoyl}piperazine], which IC50 at 24 h ([1]; HepG2 LSSprom cells) is on record?
**A.** > 10 µM

**Q.** What about the IC50 [2, 3] of the same compound?
**A.** > 3 µM

**Q.** Which results are given for `CC(=O)N1CCN(C(=O)c2ccc(-c3csc(-c4ccnc(C(C)(C)C)c4)c3)c(Cl)c2)CC1` [Compound 29, 1-(4-{4-[5-(2-tert-butylpyridin-4-yl)thiophen-3-yl]-3-chlorobenzoyl}piperazin-1-yl)ethan-1-one]?
**A.** IC50 at 24 h ([1]; HepG2 LSSprom cells): > 10 µM; IC50 [2, 3]: 1.4 µM

**Q.** For `CC(C)(C)c1cc(-c2cc(-c3ccc(C(=O)N4CCN(S(C)(=O)=O)CC4)cc3Cl)cs2)ccn1` [Compound 30, 1-{4-[5-(2-tert-butylpyridin-4-yl)thiophen-3-yl]-3-chlorobenzoyl}-4-methane sulfonylpiperazine], which IC50 at 24 h ([1]; HepG2 LSSprom cells) is on record?
**A.** > 10 µM

**Q.** What about the IC50 [2, 3] of the same compound?
**A.** 2.5 µM

**Q.** What does the source list for `CC(C)N(C(=O)c1ccc(-c2csc(-c3ccnc(C(C)(C)C)c3)c2)c(Cl)c1)C(C)C` [Compound 33, 4-[5-(2-tert-butylpyridin-4-yl)thiophen-3-yl]-3-chloro-N,N-bis(propan-2-yl) benzamide]?
**A.** IC50 at 24 h ([1]; HepG2 LSSprom cells): > 10 µM; IC50 [2, 3]: 0.21 µM

**Q.** Which IC50 at 24 h ([1]; HepG2 LSSprom cells) does the source give for `CC(C)N1CCc2cc(-c3csc(-c4ccnc(C(C)(C)C)c4)c3)ccc2C1=O` [Compound 35, 6-[5-(2-tert-butylpyridin-4-yl)thiophen-3-yl]-2-(propan-2-yl)-1,2,3,4-tetrahydroisoquinolin-1-one] here?
**A.** > 10 µM

**Q.** And the IC50 [2, 3]?
**A.** 2.4 µM

**Q.** With `CC(C)(C)OC(=O)NC1CCN(C(=O)c2ccc(-c3csc(-c4ccnc(C(C)(C)C)c4)c3)c(Cl)c2)CC1` [Compound 37, tert-butyl N-(1-{4-[5-(2-tert-butylpyridin-4-yl)thiophen-3-yl]-3-chlorobenzoyl}piperidin-4-yl)carbamate] as the compound, how does the IC50 at 24 h ([1]; HepG2 LSSprom cells) read?
**A.** > 10 µM

**Q.** And the IC50 [2, 3]?
**A.** 0.91 µM

**Q.** With `CC(=O)NC1CCN(C(=O)c2ccc(-c3csc(-c4ccnc(C(C)(C)C)c4)c3)c(Cl)c2)CC1` [Compound 38, N-(1-{4-[5-(2-tert-butylpyridin-4-yl)thiophen-3-yl]-3-chlorobenzoyl}piperidin-4-yl) acetamide] as the compound, how does the IC50 at 24 h ([1]; HepG2 LSSprom cells) read?
**A.** > 10 µM

**Q.** What about the IC50 [2, 3] of the same compound?
**A.** 2.1 µM

**Q.** What does the source list for `CCN1CCN(C(=O)c2ccc(-c3csc(-c4ccnc(C(C)(C)C)c4)c3)c(Cl)c2)CC1=O` [Compound 39, 4-{4-[5-(2-tert-butylpyridin-4-yl)thiophen-3-yl]-3-chlorobenzoyl}-1-ethylpiperazin-2-one]?
**A.** IC50 at 24 h ([1]; HepG2 LSSprom cells): > 10 µM; IC50 ([2]; 24 h): 6.2 µM

**Q.** What does the source list for `CC(C)(C)c1cc(-c2csc(-c3ccc(C(=O)N4CCC(F)(F)CC4)cc3Cl)c2)ccn1` [Compound 40, 2-tert-butyl-4-{5-[2-chloro-4-(4,4-difluoropiperidine-1-carbonyl)phenyl]thiophen-3-yl}pyridine]?
**A.** IC50 at 24 h ([1]; HepG2 LSSprom cells): > 10 µM; IC50 [2, 3]: 0.15 µM

**Q.** For `CN(C(=O)c1ccc(-c2csc(-c3ccnc(C(C)(C)C)c3)c2)c(Cl)c1)c1ccccc1` [Compound 41, 4-[5-(2-tert-butylpyridin-4-yl)thiophen-3-yl]-3-chloro-N-methyl-N-phenyl benzamide], which IC50 at 24 h ([1]; HepG2 LSSprom cells) is on record?
**A.** > 10 µM

**Q.** And the IC50 [2, 3]?
**A.** 0.39 µM

**Q.** What does the source list for `CC(C)(C)c1cc(-c2cc(-c3ccc(C(=O)N4CCC4)cc3Cl)cs2)ccn1` [Compound 42, 4-{4-[4-(azetidine-1-carbonyl)-2-chlorophenyl]thiophen-2-yl}-2-tert-butylpyridine]?
**A.** IC50 at 24 h ([1]; HepG2 LSSprom cells): > 10 µM; IC50 ([2]; 24 h): 0.84 µM

**Q.** Which IC50 at 24 h [1] does the source give for `CC(C)(C)c1cc(-c2cc(-c3ccc(C(=O)N4CC5(COC5)C4)cc3Cl)cs2)ccn1` [Compound 43, 6-{4-[5-(2-tert-butylpyridin-4-yl)thiophen-3-yl]-3-chlorobenzoyl}-2-oxa-6-azaspiro[3.3]heptane] here?
**A.** > 10 µM

**Q.** And the IC50 [2, 3]?
**A.** 3.8 µM

**Q.** For `CCOC(=O)NC1CCCN(C(=O)c2ccc(-c3csc(-c4ccnc(C(C)(C)C)c4)c3)c(Cl)c2)C1` (stereo not shown) [Compound 44, ethyl N-(1-{4-[5-(2-tert-butylpyridin-4-yl)thiophen-3-yl]-3-chlorobenzoyl}piperidin-3-yl)carbamate], which IC50 at 24 h ([1]; HepG2 LSSprom cells) is on record?
**A.** > 10 µM

**Q.** And the IC50 ([2]; 24 h)?
**A.** 0.44 µM

**Q.** Which results are given for `CCOC(=O)N1CCN(C(=O)c2ccc(-c3csc(-c4ccnc(C(C)(C)C)c4)c3)c(Cl)c2)CC1` [Compound 45, ethyl 4-{4-[5-(2-tert-butylpyridin-4-yl)thiophen-3-yl]-3-chlorobenzoyl}piperazine-1-carboxylate]?
**A.** IC50 at 24 h ([1]; HepG2 LSSprom cells): > 10 µM; IC50 ([2]; 24 h): 1.8 µM

**Q.** For `CC(C)(C)C(=O)N1CCN(C(=O)c2ccc(-c3csc(-c4ccnc(C(C)(C)C)c4)c3)c(Cl)c2)CC1` [Compound 46, 1-(4-{4-[5-(2-tert-butylpyridin-4-yl)thiophen-3-yl]-3-chlorobenzoyl}piperazin-1-yl)-2,2-dimethylpropan-1-one], which IC50 at 24 h ([1]; HepG2 LSSprom cells) is on record?
**A.** > 10 µM

**Q.** What about the IC50 [2, 3] of the same compound?
**A.** 1.3 µM

**Q.** Which IC50 at 24 h ([1]; HepG2 LSSprom cells) does the source give for `CCN(CCNC(C)=O)C(=O)c1ccc(-c2csc(-c3ccnc(C(C)(C)C)c3)c2)c(Cl)c1` [Compound 47, N-[2-(1-{4-[5-(2-tert-butylpyridin-4-yl)thiophen-3-yl]-3-chlorophenyl}-N-ethylformamido)ethyl]acetamide] here?
**A.** > 10 µM

**Q.** What about the IC50 [2, 3] of the same compound?
**A.** 0.33 µM

**Q.** Which IC50 at 24 h ([1]; HepG2 LSSprom cells) does the source give for `CC(C)(C)c1cc(-c2cc(-c3ccc(C(=O)N4CCCC(O)C4)cc3Cl)cs2)ccn1` (stereo not shown) [Compound 48, 1-{4-[5-(2-tert-butylpyridin-4-yl)thiophen-3-yl]-3-chlorobenzoyl}piperidin-3-ol] here?
**A.** > 10 µM

**Q.** What about the IC50 [2, 3] of the same compound?
**A.** 0.26 µM

**Q.** What does the source list for `CC(C)(C)c1cc(-c2cc(-c3ccc(C(=O)N4CCC[C@@H](O)C4)cc3Cl)cs2)ccn1` [Compound 48a, (R)-(4-(5-(2-(tert-butyl)pyridin-4-yl)thiophen-3-yl)-3-chlorophenyl)(3-hydroxypiperidin-1-yl)methanone]?
**A.** IC50 at 24 h ([1]; HepG2 LSSprom cells): > 10 µM; IC50 [2, 3]: 0.31 µM
